Experiments:
α4β7 integrin = molecular target: T1, α4β7 integrin (Homo sapiens, UniProt P13612+P26010); settings: purified integrin; read-out: Binding affinity IC50, α4β7/MAdCAM-1
T1 construct: purchased R&D Systems
T1 sequence (P13612 34-970 limits assumed): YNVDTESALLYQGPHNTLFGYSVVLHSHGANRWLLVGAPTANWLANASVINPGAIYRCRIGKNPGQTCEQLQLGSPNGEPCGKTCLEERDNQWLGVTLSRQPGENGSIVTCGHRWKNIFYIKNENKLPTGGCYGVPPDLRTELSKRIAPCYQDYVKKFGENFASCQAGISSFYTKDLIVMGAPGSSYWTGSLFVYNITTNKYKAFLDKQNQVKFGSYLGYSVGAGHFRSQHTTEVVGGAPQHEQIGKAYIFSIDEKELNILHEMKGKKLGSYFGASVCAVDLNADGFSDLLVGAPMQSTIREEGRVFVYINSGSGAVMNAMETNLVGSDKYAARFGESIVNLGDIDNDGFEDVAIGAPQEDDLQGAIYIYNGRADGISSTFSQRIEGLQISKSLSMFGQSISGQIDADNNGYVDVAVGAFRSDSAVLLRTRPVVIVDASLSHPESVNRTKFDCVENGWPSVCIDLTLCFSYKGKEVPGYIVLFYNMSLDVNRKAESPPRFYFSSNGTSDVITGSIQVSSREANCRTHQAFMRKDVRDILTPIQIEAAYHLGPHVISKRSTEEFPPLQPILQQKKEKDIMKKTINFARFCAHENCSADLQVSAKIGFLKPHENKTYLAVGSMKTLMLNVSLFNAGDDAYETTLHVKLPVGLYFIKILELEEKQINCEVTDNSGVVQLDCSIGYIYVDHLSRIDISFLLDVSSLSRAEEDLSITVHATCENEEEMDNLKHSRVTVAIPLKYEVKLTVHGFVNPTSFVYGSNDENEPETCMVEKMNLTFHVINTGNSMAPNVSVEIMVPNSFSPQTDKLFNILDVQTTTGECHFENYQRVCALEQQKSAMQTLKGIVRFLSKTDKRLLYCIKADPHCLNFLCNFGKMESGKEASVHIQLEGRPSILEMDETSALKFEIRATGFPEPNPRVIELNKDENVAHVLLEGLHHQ
T1 sequence (P26010 20-723 limits assumed): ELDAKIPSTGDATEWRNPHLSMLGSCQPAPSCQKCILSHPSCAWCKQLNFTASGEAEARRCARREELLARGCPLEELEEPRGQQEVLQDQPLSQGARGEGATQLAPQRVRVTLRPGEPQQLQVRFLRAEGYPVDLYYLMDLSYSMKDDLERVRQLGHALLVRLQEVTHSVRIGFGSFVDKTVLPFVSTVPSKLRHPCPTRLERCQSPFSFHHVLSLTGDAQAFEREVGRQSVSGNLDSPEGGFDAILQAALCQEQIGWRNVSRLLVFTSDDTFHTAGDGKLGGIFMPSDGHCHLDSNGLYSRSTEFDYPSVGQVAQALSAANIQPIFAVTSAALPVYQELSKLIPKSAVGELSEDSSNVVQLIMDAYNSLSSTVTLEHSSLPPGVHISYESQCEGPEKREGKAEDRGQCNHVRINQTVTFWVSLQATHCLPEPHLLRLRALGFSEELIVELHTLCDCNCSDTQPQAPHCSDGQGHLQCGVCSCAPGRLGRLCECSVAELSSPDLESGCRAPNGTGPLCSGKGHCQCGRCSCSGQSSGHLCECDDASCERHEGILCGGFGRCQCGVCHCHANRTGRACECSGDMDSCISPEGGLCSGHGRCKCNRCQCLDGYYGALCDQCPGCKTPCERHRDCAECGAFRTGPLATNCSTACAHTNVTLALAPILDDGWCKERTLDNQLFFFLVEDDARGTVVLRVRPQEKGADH
Experimental: (§1) For the evaluation of binding affinity to purified α4β1, αMβ2, and α4β7 integrins, competitive solid-phase ligand binding assays were performed as follows. […] Afterward, each well was washed and blocked for 1 h at RT. Purified integrins (α4β1: 0.5 μg/mL; α4β7: 0.5 μg/mL; αMβ2: 0.5 μg/mL; R&D Systems) were preincubated with serial dilutions of new compounds (10^–4 – 10^–10 M) for 30 min at RT and then plated into coated wells for 1 h at RT. After two washes, primary antibody (for α4β1 and α4β7: rabbit anti-α4, Abcam, 1:100 dilution; for αMβ2: rabbit anti-αM, Abcam, 1:100 dilution) was added and incubated for 1 h at RT. The plate was washed twice and then was incubated with anti-rabbit AlexaFluor488 secondary antibody (1:400 dilution, ThermoFischer Scientific) for 1 h at RT. After washing three times, fluorescence was measured as described in the previous section.

αLβ2 integrin = αLβ2 integrin (Homo sapiens, UniProt P05107+P20701); test: Competitive solid-phase binding assay, purified αLβ2 / ICAM-1; settings: read-out: Binding affinity IC50, αLβ2/ICAM-1
Experimental: (§2) Solid-phase ligand binding assays on purified integrin were conducted as previously described[34] with the following modifications. […] The following day, wells were blocked with TSB buffer (20 mM Tris-HCl, 150 mM NaCl, 1 mM CaCl2, 1 mM MgCl2, 1 mM MnCl2, pH 7.5, 1% BSA) for 1 h at room temperature. Purified α5β1 (10 μg/mL) or αLβ2 (7 μg/mL) was incubated with the new synthesized compounds, at different concentrations (10^–4 to 10^–10 M), in coated wells for 1 h at RT. Then, after three washes with PBST buffer, primary antibody (anti-α5β1, BD Bioscience, 1:100 dilution or anti-αL, Abcam, 1:200 dilution) was added for 1 h at RT. Then antirabbit AlexaFluor488-secondary antibody (ThermoFisher Scientific, 1:400 dilution) was added after three washes with PBST buffer and incubated 1 h at room temperature.

α5β1 integrin [1] = molecular target: T2, α5β1 integrin (Homo sapiens, UniProt P05556+P08648); test: Competitive solid-phase binding assay, purified α5β1 / FN; settings: read-out: Binding affinity IC50, α5β1/FN
Experimental: as §2

αMβ2 integrin = αMβ2 integrin (Homo sapiens, UniProt P05107+P11215); test: Competitive solid-phase binding assay, purified αMβ2 / fibrinogen; parameters: purchased R&D Systems; settings: read-out: Binding affinity IC50, αMβ2/Fg
Experimental: as §1

α5β1 integrin [2] = molecular target: T2, α5β1 integrin; test: K562 cell adhesion to FN
α4β1 integrin [3] = molecular target: T3, α4β1 integrin (Homo sapiens, UniProt P05556+P13612); test: Jurkat E6.1 cell adhesion to FN; settings: for agonist or antagonist behaviour, FN/Jurkat E6.1 α4β1: agonist = adhesion index >1, antagonist = adhesion index <1
α4β1 integrin [4] = molecular target: T3, α4β1 integrin; test: Jurkat E6.1 cell adhesion to VCAM-1
[5] = agonist = adhesion index >1, antagonist = adhesion index <1

Cc1ccccc1NC(=O)N1C(=O)CC1CC(=O)NCC(=O)O (stereo not drawn) [1b]
IC50 (α4β7 integrin): > 5000 nM
IC50 (αLβ2 integrin): > 5000 nM
IC50 (α5β1 integrin [1]): 49 ± 7 nM
IC50 (αMβ2 integrin): > 5000 nM
agonist or antagonist behaviour, FN/K562 α5β1 (α5β1 integrin [2]; [5]): agonist
EC50 (α5β1 integrin [2]; read-out: EC50 for agonists, FN/K562 α5β1, increase of cell adhesion, mean ± SD): 9.7 ± 0.5 nM
agonist or antagonist behaviour, FN/Jurkat E6.1 α4β1 (α4β1 integrin [3]): completely ineffective

Cc1ccccc1NC(=O)N1C(=O)CC1CC(=O)O (stereo not drawn) [1a]
IC50 (α4β7 integrin): > 5000 nM
IC50 (αLβ2 integrin): > 5000 nM
IC50 (α5β1 integrin [1]): > 5000 nM
IC50 (αMβ2 integrin): > 5000 nM
agonist or antagonist behaviour, FN/Jurkat E6.1 α4β1 (α4β1 integrin [3]): agonist
EC50 (α4β1 integrin [3]; read-out: EC50 for agonists, FN/Jurkat E6.1 α4β1, increase of cell adhesion, mean ± SD, three experiments in quadruplicate): 15.6 ± 1.5 nM
agonist or antagonist behaviour, VCAM-1/Jurkat E6.1 α4β1 (α4β1 integrin [4]; [5]): agonist
EC50 (α4β1 integrin [4]; read-out: EC50 for agonists, VCAM-1/Jurkat E6.1 α4β1, increase of cell adhesion, mean ± SD): 13 ± 0.8 nM
